Test results reported in US4801593A, “Chemotherapeutic agents” (Burroughs Wellcome Co., priority 1979, dated 1989).

What follows are compounds tested on rhinovirus serotype 1B (assay: plaque reduction (PR) test). Conditions: Enterovirus, read-out: PR(ED50).
Format: cell-based
Protocol: (§1) Activity may be detected by the plaque inhibition (PI) test and measured by the plaque reduction (PR) test. Both assays involve the formation of a monolayer cell culture in a petri dish followed by infection with a virus suspension, and then overlaying the culture with nutrient agarose in the form of a gel. This gel ensures that there is no spread of virus throughout the culture and thus areas of localised cell destruction, or plaques, are formed.
Detectable activity is measured with the plaque reduction assay. A range of concentrations of compound of known molarity are incorporated in the nutrient agarose overlay. Plaque suppression is proportional to compound concentration. Plaque numbers are expressed as percentages of a control, and a dose response curve may be drawn. From this curve 50% of the effective dose(ED50) may be estimated.

SMILES | EC50 [nM]
c1ccc(N2CCc3ccccc3C2)cc1 [Example 4, 2-phenyl-1,2,3,4-tetrahydroisoquinoline] | 70

Same assay, conditions: Enterovirus; Activity versus rhinovirus serotype 1B; monolayer cell culture, compound in nutrient agarose overlay; read-out: PR(ED50)

SMILES | EC50 [nM]
Clc1ccc(C2CCc3cc(Cl)ccc3S2)cc1 (centres unmarked) [Example 3, 4',6-dichlorothioflavan] | 44
Clc1ccc(N2CCc3ccccc3C2)cc1 [Example 7, 1,2,3,4-tetrahydro-2-(4-chlorophenyl)isoquinoline] | 100
Clc1ccc2c(c1)CN(c1ccc(Cl)c(Cl)c1)CC2 [Example 23, 7-chloro-2-(3,4-dichlorophenyl)-1,2,3,4-tetrahydroisoquinoline] | 620
COc1ccc(N2CCc3ccccc3C2)c(OC)c1 [Example 16, 1,23,4-tetrahydro-2-(2-4-dimethoxyphenyl)isoquinoline] | 8000
Clc1ccc2c(c1)CN(c1ccccc1)CC2 [Example 21, 7-chloro-2-phenyl-1,2,3,4-tetrahydroisoquinoline] | 110
Clc1ccc(N2CCc3ccc(Cl)cc3C2)cc1 [Example 22, 7-chloro-2-(4-chlorophenyl)-1,2,3,4-tetrahydroisoquinoline] | 130
COc1ccc(N2CCc3ccccc3C2)cc1 [Example 12, 1,2,3,4-tetrahydro-2-(4-methoxyphenyl)isoquinoline] | 2450
Fc1ccc(N2CCc3cc(Cl)ccc3C2)cc1 [Example 20, 1,2,3,4-tetrahydro-2-(4-fluorophenyl)-6-chloroisoquinoline] | 210
Cc1cccc(C)c1N1CCc2ccccc2C1 [Example 13, 1,2,3,4-tetrahydro-2-(2,6-dimethylphenyl)isoquinoline] | 75
Clc1ccc(N2CCc3cc(Cl)ccc3C2)cc1 [Example 19, 1,2,3,4-tetrahydro-2-(4-chlorophenyl)-6-chloroisoquinoline] | 50

Second part, the compound after the results:

EC50 [nM] | SMILES
330 | c1ccc(C2CCc3ccccc3N2)cc1 (centres unmarked) [Example 24, 1,2,3,4-tetrahydro-2-phenylquinoline]
570 | Clc1ccc2c(c1)CCN(c1ccccc1)C2 [Example 18, 6-chloro-2-phenyl-1,2,3,4-tetrahydroisoquinoline]
1850 | Oc1ccc(N2CCc3ccccc3C2)cc1 [Example 15, 1,2,3,4-tetrahydro-2-(4-hydroxyphenyl)isoquinoline]
290 | c1ccc(C2Cc3ccccc3CN2)cc1 (centres unmarked) [Example 26, 3-phenyl-1,2,3,4-tetrahydroisoquinoline]
28 | c1ccc(C2CCc3ccccc3S2)cc1 (centres unmarked) [Example 1, thioflavan]
820 | c1ccc(C2COc3ccccc3C2)cc1 (centres unmarked) [Example 27, isoflavan]
1000 | Cc1ccc(N2CCc3ccccc3C2)cc1 [Example 11, 1,2,3,4-tetrahydro-2-(4-methylphenyl)isoquinoline]
210 | Fc1ccc(N2CCc3ccccc3C2)cc1 [Example 8, 1,2,3,4-tetrohydro-2-(4-fluorophenyl)isoquinoline]

Each compound was assayed on virus (assay: Intranasal administration - simulation in vitro (plaque inhibition test, compound applied to the lids of the petri dishes)). Conditions: 1 μg applied in ethanol to the lids of the petri dishes; confluent sheet of cells covered with agarose gel.
Format: cell-based
Source text: as §1
In the plaque inhibition test a filter paper disc which holds 0.01 ml when impregnated with a solution of compound is placed on top of the agarose gel. The compound may then diffuse throughout the gel so that its greatest concentration will be around the disc and its lowest concentration towards the periphery of the petri dish. The efficacy of the compound may be detected by observing the zone of inhibition of plaque formation.
Petri dishes were prepared, as for the plaque inhibition test and the confluent sheet of cells was covered with a layer of agarose gel. The compound, 2-phenyltetrahydroisoquinoline (1 μg) was dissolved in ethanol, and applied to the lids of the petri dishes. When the ethanol had evaporated, leaving the compound spread over the inside of the lids, these were replaced on the petri dishes.

SMILES | inhibition of plaque formation
c1ccc(N2CCc3ccccc3C2)cc1 [Example 4, 2-phenyl-1,2,3,4-tetrahydroisoquinoline] | total inhibition of plaque formation
